These results are taken from patent US20250186397A1, “COMPOUNDS FOR THE USE IN THE TREATMENT OF MOOD DISORDERS” (Kanna Health Ltd, priority 2022, published 2025).

By IC50 is commonly meant the midpoint of a concentration-inhibition curve. By AUC(0-inf) is commonly meant the area under the concentration-time curve extrapolated to infinity. Lower therefore signals low exposure. By Cmax is commonly meant the peak of the concentration-time curve. The term Tmax denotes the time from dosing to the highest level. As usually defined, the half-life is the time needed for the level to fall by half in the phase considered. A high value points to slow loss.

In data set [1] the test system is C57B6J mice. The data set can be described thus: Elevated plus maze after chronic mild unpredictable stress. Format: in vivo. As for the experimental part:
FIG. 8. Effect of mesembrenol (0.3, 1 and 3 mg/kg, i.p.) administered 30 minutes pre-test on chronic mild unpredictable stress induced anxiety phenotype in the elevated plus maze. Data represents (A) latency to open arm entry (sec), (B) number of open arm entries (a.u.) and (C) total time in open arms of the apparatus during the ten minute procedure. Analysis by one-way ANOVA followed by multiple comparisons with Dunn's and Sidak's correction; *-**** P<0.05-0.0001 vs stress vehicle (n=8).
FIG. 9. Effect of mesembranol (0.3, 1 and 3 mg/kg, i.p.) administered 30 minutes pre-test on chronic mild unpredictable stress induced anxiety phenotype in the elevated plus maze. Data represents (A) latency to open arm entry (sec), (B) number of open arm entries (a.u.) and (C) total time in open arms of the apparatus during the ten minute procedure. Analysis by one-way ANOVA followed by multiple comparisons with Dunn's and Sidak's correction; *-**** P<0.05-0.0001 vs stress vehicle (n=8).
(§1) C57BI6J mice, will be housed in groups of 4, will be exposed to a variety of mild stressors for a period of four weeks.
(§2) The stressors will include wet bedding, 40° cage tilt, introduction of intruder mouse from different experimental cohort, food deprivation, water deprivation, overnight illumination, and presence of soiled rat bedding as an aversive odour. These stressors are randomly scheduled over each weekly period and repeated for the duration of the experiment. Each stressor is applied for a period of 8-16 hours.
(§3) A cohort of depression-like phenotype in adult male C57B6J mice is produced by employing a four-week mild unpredictable stress protocol.
Finally, the effect of the test compounds on chronic unpredictable mild stress anxiogenic phenotype in the elevated plus-maze to determine anxiolytic-like activity.
The apparatus consists of 4 raised flat runways extending from a central platform raised 1 m above the floor of a 2 m wide water maze (prevents escape in the rare event of an animal falling from the apparatus). Two arms have enclosed sides while the others are open.
The mouse version of the apparatus employs maze arms of 30 cm length and 6 cm width, where the enclosed arms have walls 30 cm high. The room is lit with low level indirect lighting.
Animals are allowed to freely explore the apparatus over a 10 minute trial with remote video analysis capturing the pattern of animal movement. The time animals spend exploring the open arms of the maze during the trial is inversely related to the level of stress/anxiety felt by the animal.
Endpoints recorded are the latency (sec) to enter open arms of the maze, total number of open arm entries (a.u.) and total time (sec) spent in the open arms of the plus-maze.

Data set [2] concerns the target human recombinant PDE-4D2 (Homo sapiens, UniProt Q08499). As to the kind of experiment: PDE4-D2 assay (SPA). Format: biochemical. As for the experimental part:
(§4) Test compounds (conc range), reference compound or vehicle control were added to assay buffer containing (in mM); Tris/HCl, pH 7.4 (40), MgCl2 (8) and EGTA/NaOH (1.7), containing 450 nM cAMP (450 nM) and 0.25 μCi (PDE-4B1) or 0.0125 μCi (PDE-4D2) [^3H] CAMP. 20 mins after addition of human recombinant PDE-4B1 (1.2 IEU) or PDE-4D2 (1.5 IEU), SPA beads were added and incubated at 22° C. for a further 30 mins. [^3H]5′AMP was quantified by a standard scintillation counting method.
(§5) Data were expressed as the mean of two technical replicates for each data point, and percent inhibition calculated relative to maximum inhibition observed in the presence of the reference comparator rolipram for PDE-4 assays, and imipramine for serotonin assays.

A short description of the next data set: in vivo. The note with it: male, C57BI/6J, mouse, ip, 10 mg/kg.
Another data set relates to zebrafish. The note with it: isolated alkaloids, Maphanga et al., 2022; cited from earlier work.
Data set [3] has as its system C57B6J mice. As to the kind of experiment: Forced swim test after chronic mild unpredictable stress. In kind it is in vivo. The note with it: 3 mg/kg i.p., 30 minutes pre-test, relative to vehicle. As for the experimental part:
FIG. 6. Effect of mesembrenol (0.3, 1 and 3 mg/kg, i.p.) administered 30 minutes pre-test on chronic mild unpredictable stress induced depression phenotype in the forced swim test. Data represents (A) latency to immobility (sec) and (B) total time immobile in the four minute evaluation phase of the procedure. Analysis by one-way ANOVA followed by multiple comparisons with Sidak's and Dunn's correction; **-****P<0.01-0.0001 vs stress vehicle (n=8).
FIG. 7. Effect of mesembranol (0.3, 1 and 3 mg/kg, i.p.) administered 30 minutes pre-test on chronic mild unpredictable stress induced depression phenotype in the forced swim test. Data represents (A) latency to immobility (sec) and (B) total time immobile in the four minute evaluation phase of the procedure. Analysis by one-way ANOVA followed by multiple comparisons with Sidak's correction; ***-****P<0.001-0.0001 vs stress vehicle (n=8).
as §1, §2, §3
The effect of treatment with the test compounds on chronic mild stress induced immobility in the forced swim test was tested to establish antidepressant-like activity.
Following the 24 hour sucrose preference test, animals are treated again with the test compound, imipramine or vehicle. Animals are individually placed in clear Plexiglas cylinders (25 cm high; 10 cm in diameter) which are filled to a depth of 15 cm with water at 22-25° C.
Testing is conducted under low level red light and behaviour recorded over a 6 minute period using a video camera placed above the cylinder. During the test the animals are placed in the cylinder and allowed to habituate for two minutes before the cumulative duration of time spent immobile is determined over the following 4 minutes. Latency to immobility is recorded.
Movements necessary for the animal to maintain its head above water will not be scored as activity.

Data set [4] deals with T1, human serotonin transporter (Homo sapiens, UniProt P31645).
T1 construct: expressed in transfected cells; host or cells: CHO cells
As to the kind of experiment: SERT assay, [3H] serotonin uptake in transfected CHO cells. Format: cell-based. The note with it: CHO cells with human serotonin transporter, 180 min. As for the experimental part:
Test compounds (conc range), reference compound or vehicle control were incubated for 180 min at room temperature with CHO cells stably transfected with the human serotonin transporter (5×10^3 cells/well) with 0.15 μM [3H] serotonin in the presence or absence of the test or reference compound in buffer containing (in mM); Tris/HCl (pH 7.4) (5), HEPES/Tris (7.5), NaCl (120), KCl (5.4), CaCl2) (1.2), MgSO4 (1.2), Glucose (5) and ascorbic acid (1). Following incubation, [3H] serotonin uptake was quantified by a standard scintillation counting method.
as §5

The target of data set [5] is human recombinant PDE-4B1 (Homo sapiens, UniProt Q07343). As to the kind of experiment: PDE4-B1 assay (SPA). Format: biochemical. Particulars: human recombinant enzyme, 450 nM cAMP. As for the experimental part: as §4, §5
[6] abbreviates: 3 mg/kg i.p., 30 minutes pre-test, relative to vehicle.

T1 sequence (P31645 whole entry): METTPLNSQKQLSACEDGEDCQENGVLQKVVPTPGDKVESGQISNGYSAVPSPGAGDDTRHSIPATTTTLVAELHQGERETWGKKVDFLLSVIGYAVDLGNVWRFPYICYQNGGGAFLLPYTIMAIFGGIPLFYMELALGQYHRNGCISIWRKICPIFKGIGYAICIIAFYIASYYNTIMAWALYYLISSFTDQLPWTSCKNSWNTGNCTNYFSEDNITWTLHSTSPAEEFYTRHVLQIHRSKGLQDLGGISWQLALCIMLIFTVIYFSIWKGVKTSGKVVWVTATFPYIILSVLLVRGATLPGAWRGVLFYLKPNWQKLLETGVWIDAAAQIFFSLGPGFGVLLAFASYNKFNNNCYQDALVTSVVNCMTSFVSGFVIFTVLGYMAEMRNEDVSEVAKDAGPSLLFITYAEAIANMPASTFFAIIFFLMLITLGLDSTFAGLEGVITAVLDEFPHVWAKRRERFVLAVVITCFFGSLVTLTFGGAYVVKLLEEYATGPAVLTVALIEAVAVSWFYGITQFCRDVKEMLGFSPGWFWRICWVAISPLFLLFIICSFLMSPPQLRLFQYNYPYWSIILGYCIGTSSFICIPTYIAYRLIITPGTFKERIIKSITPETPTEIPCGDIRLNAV
Chain of human recombinant PDE-4B1 (Q07343 whole entry): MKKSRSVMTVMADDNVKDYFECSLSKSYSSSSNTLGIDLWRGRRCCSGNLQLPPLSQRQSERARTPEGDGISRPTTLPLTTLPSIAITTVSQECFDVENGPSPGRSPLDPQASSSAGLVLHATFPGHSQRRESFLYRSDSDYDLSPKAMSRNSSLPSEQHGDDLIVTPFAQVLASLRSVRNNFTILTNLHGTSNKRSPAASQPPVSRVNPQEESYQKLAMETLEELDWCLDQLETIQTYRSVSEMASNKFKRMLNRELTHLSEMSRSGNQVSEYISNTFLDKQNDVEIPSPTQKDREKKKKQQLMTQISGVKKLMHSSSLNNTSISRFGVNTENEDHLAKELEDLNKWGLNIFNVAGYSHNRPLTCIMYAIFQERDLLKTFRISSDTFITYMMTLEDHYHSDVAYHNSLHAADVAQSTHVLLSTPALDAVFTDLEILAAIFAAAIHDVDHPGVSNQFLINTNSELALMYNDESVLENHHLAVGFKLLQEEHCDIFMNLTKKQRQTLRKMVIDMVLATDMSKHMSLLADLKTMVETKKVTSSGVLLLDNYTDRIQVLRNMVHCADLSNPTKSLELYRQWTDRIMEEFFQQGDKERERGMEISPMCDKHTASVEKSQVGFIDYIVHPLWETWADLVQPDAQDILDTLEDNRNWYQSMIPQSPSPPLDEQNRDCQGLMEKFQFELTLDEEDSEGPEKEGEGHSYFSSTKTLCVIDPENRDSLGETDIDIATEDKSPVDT
Chain of human recombinant PDE-4D2 (Q08499 303-809 limits assumed): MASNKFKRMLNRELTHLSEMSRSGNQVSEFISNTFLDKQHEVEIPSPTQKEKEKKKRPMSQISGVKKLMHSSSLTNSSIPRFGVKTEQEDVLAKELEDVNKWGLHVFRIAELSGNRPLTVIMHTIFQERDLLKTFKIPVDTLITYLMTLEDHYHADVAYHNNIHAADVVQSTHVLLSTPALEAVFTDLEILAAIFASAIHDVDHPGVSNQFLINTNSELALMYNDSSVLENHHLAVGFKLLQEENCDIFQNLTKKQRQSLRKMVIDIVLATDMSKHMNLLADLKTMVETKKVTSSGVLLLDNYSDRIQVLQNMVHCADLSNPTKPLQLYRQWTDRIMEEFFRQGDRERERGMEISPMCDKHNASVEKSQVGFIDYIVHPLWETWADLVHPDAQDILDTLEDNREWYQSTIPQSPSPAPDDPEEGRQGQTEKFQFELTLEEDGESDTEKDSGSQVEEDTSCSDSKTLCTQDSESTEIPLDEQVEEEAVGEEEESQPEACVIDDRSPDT
Description for in vivo: Groups of male C57BI/6J mice received a single administration of test compound (10 mg/kg; i.p.) in methylcellulose (0.5% w/v).
Three mice from each dose group were subject to cardiac puncture under general anaesthesia at 0.25, 0.50, 1.00, 2.00, 4.00, 7.00 and 24.0 hours post-dose and plasma samples generated for application of standard LC-MS/MS bioanalytical methods.
Quantitation of compound concentration was derived from reference calibration data. Pharmacokinetic data were derived from serial plasma concentrations.

Regarding `COc1ccc(C23CCC(O)CC2N(C)CC3)cc1OC` (stereo not shown) [Mesembranol, 3a-(3,4-dimethoxyphenyl)-1-methyl-3,4,5,6,7,7a-hexahydro-2H-indol-6-ol], in the data set with C57B6J mice [1] (setting [6]), the “number of open arm entries” value is on record as “significant increase” and the “time spent in the open arms” value was “significant increase”. For the same molecule, in data set [2], the IC50 came to 9.84 µM. In “in vivo”, the AUC(0-inf) worked out at 649 ng·h/mL, the peak level (Cmax) was 834 ng/mL, the Tmax stood at 18 min and the half-life was 21.8 min. Besides, the “effect in zebrafish model of anxiety” value with zebrafish is on record as “anxiolytic-like effect”. For the same molecule, in the data set on C57B6J mice [3], the immobility time result is listed as “significant reduction” and the latency to immobility entry is recorded as “no changes”. The same molecule had a 50% inhibitory concentration (IC50) in data set [4] of 0.143 µM. Also, the IC50 in data set [5] amounted to 8.41 µM.

Regarding `COc1ccc(C23C=CC(O)CC2N(C)CC3)cc1OC` (stereo not shown) [Mesembrenol], the “time spent in the open arms” value with C57B6J mice [1] (1 mg/kg i.p., 30 minutes pre-test, relative to vehicle) is reported as “significant increase”. Further, in the data set with C57B6J mice [1] (setting [6]), the “time spent in the open arms” value is recorded as “significant increase”. In addition, the “number of open arm entries” value in the data set on C57B6J mice [1] (0.3, 1 and 3 mg/kg i.p., versus the vehicle group) was “no change”. In addition, the IC50 in data set [2] amounted to 3.91 µM. Besides, in “in vivo”, the AUC(0-inf) turned out to be 352 ng·h/mL, the highest level (Cmax) was 503 ng/mL, the Tmax stood at 16 min and the half-life is 26.3 min. Further, the “effect in zebrafish model of anxiety” value in the data set with zebrafish is “anxiolytic-like effect”. Also, in the data set with C57B6J mice [3], the immobility time result is given as “significant reduction” and the latency to immobility entry is reported as “significant increase”. In data set [4], this molecule registered an IC50 of 0.462 µM. Besides, the IC50 in data set [5] turned out to be 27.6 µM.
